Data on seven compounds can be found in US8791110B2 (priority 2006, dated 2014).

Data set [1] concerns Tacaribe (TRVL 11573) virus. Nature of the data set: microbe, parasite or virus in culture. Particulars: Mammarenavirus tacaribeense, Vero. It counts as cell-based.
For data set [2], the system named is Machupo virus. Nature of the data set: microbe, parasite or virus in culture. It counts as cell-based. Particulars: Mammarenavirus machupoense, Vero, 120 h, read-out: EC50 Category A NWA, Machupo.
The test system of data set [3] is Vero cells.
The subject of data set [4] is Guanarito virus. The data set is described as follows: microbe, parasite or virus in culture. It counts as cell-based. To be noted: Mammarenavirus guanaritoense, Vero, 120 h, read-out: EC50 Category A NWA, Guanarito.
Data set [5] deals with Candid 1. Nature of the data set: organism not typed. Particulars: read-out: EC50 Candid 1. It counts as cell-based, Junín virus.
The nature of data set [6]: in vitro. Particulars: African green monkey.
In data set [7] the test system is Arenavirus. Particulars: cited from earlier work.
For data set [8] the following is noted: in vivo; cited from earlier work.
The conditions of data set [9]: in vivo; cited from earlier work. The source holds these as a separate data set.

Like-named read-outs stand apart in the source and are kept apart here. Numbered stars: 1 amine (or outer) side, 2 acyl side, 3 side chain; on linkers, the order of the positions; unused ones are H or OH. Bridge positions count the residues as written; N and C are the ends. Square brackets hold non-standard residues; d marks the D form. Peptide text beside a SMILES is read from it. I, II: the chains in the order shown. Actinocin(9to1) = Cc1c2oc3c(C)ccc(C(=O)[*:1])c3nc-2c(C(=O)[*:2])c(N)c1=O; NMeV = CN[C@H](C(=O)O)C(C)C; Sar = CNCC(=O)O

By EC50 is commonly meant the midpoint of the concentration-response curve. `CN1CCN(C(=S)Nc2ccc(Cl)c(Cl)c2)CC1` [Compound 313761, 4-methyl-piperazine-1-carbothioic acid (3,4-dichlorophenyl)-amide]: the concentration giving a half-maximal response (EC50) in data set [1] (168 h, read-out: EC50 Tacaribe) is 0.14 µM; in data set [1] (read-out: EC50 value in the CPE assay), 0.14 µM; in data set [2], 0.3 µM; in data set [4] it was 0.15 µM; in data set [5], 0.26 µM. Also, in [3], the “toxicity / effect on cell growth at antiviral concentrations” value is reported as “active at non-toxic concentrations”. In [6], this compound displayed a CC50 of 50 µM.

On to `CN1CCN(CCCN2c3ccccc3Sc3ccc(C(F)(F)F)cc32)CC1` [trifluoroperazine], for which the anti-Arenavirus activity result in [7] was “generally weak and non-specific”.

For the compound `CN(C)CCCN1c2ccccc2Sc2ccc(Cl)cc21` [chlorpromazine], in data set [7], the anti-Arenavirus activity result was “generally weak and non-specific”.

Take `NC(=O)c1ncn([C@@H]2O[C@H](CO)[C@@H](O)[C@H]2O)n1` [ribavirin, Ribavirin]: the adverse effects entry in data set [8] is recorded as “dose-related, reversible hemolytic anemia”. Further, the reproductive toxicity entry in data set [9] was “teratogenicity and embryo lethality”.

In the case of `NC12CC3CC(CC(C3)C1)C2` [amantadine], the anti-Arenavirus activity result in [7] is “generally weak and non-specific”.

As for `CN1CCN(C(=O)Nc2ccc(Cl)c(Cl)c2)CC1` [Compound 20013], the EC50 is > 50 µM in data set [1] (168 h, read-out: EC50 Tacaribe) and > 50 µM in data set [5]. The CC50 in data set [3] (African green monkey) and in data set [6] was > 50 µM throughout.

For `Cc1c2oc3c(C)ccc(C(=O)N[C@@H]4C(=O)N[C@H](C(C)C)C(=O)N5CCC[C@H]5C(=O)N(C)CC(=O)N(C)[C@@H](C(C)C)C(=O)O[C@@H]4C)c3nc-2c(C(=O)N[C@@H]2C(=O)N[C@H](C(C)C)C(=O)N3CCC[C@H]3C(=O)N(C)CC(=O)N(C)[C@@H](C(C)C)C(=O)O[C@@H]2C)c(N)c1=O` [actinomycin D] (I: T[dV]P[Sar][NMeV] / II: T[dV]P[Sar][NMeV]; ester I:1-I:C, II:1-II:C; linker I:N-II:N via Actinocin(9to1)), in data set [7], the anti-Arenavirus activity entry was “generally weak and non-specific”.
